# Test results: patent US20150065416A1, “NOVEL DRUG COMBINATION” (FAB PHARMA SAS, priority 2013, published 2015)
# How the values were obtained:
# Assay type in all cases: cell-based, Acinetobacter baumannii
# A. baumannii isolates [1] = test: Checkerboard testing (compound (I)/antibacterial agent interaction, FIC index)
# Procedure: Checkerboard interaction studies were performed using 5 isolates from each of the sub-groups and time kill studies were performed using 3 isolates from each sub-group.
# Checkerboards (20 isolates, 5 per sub-group) were prepared so as to contain multiple concentrations of compound (I) with different additional antibacterial agents (amikacin, gentamicin, colistin, meropenem and tobramycin) as follows:
# Serial two-fold dilutions of the antimicrobial agents alone or in combination in wells of 96 well microtiter plates were inoculated with the appropriate inoculum so that each well contained approximately 4-5×10^4 CFU/ml. Plates were incubated at 35° C. for 16-20 hours. Combination concentrations were tested between 0.25×MIC and 2×MIC. Growth and sterility controls were also included in each plate.
# Synergy, indifference and antagonism were calculated based upon the use of the fractional inhibitory concentration (FIC) indices as described by Pillai, Moellering & Eliopoulos (2005) whereby:
# Synergism=FIC index of ≦0.5 Indifference=FIC index >1 but ≦4 Additivity >0.5 to 1 Antagonism=FIC index of >4
# Checkerboard studies were carried out as described in General Procedures using twenty different A. baumannii isolates with 5 per sub-group of: susceptible, amikacin-resistant, colistin-resistant and meropenem-resistant.
# A. baumannii isolates [2] = test: Individual antimicrobial susceptibility testing (MIC, broth microdilution, CLSI)
# Procedure: In the antimicrobial susceptibility testing 77 isolates of A. baumannii (from 2010) in the following sub-groups were tested: • 22 isolates generally susceptible to antimicrobial agents (“Sus”) • 20 carbapenem-resistant isolates (e.g. “MPM-R”) • 20 aminoglycoside-resistant isolates (e.g. “AMK-R”) • 15 colistin-resistant isolates. (e.g. “COL-R”)
# Minimum inhibitory concentration (MIC) endpoints were determined by broth microdilution according to CLSI guidelines (CLSI, M7-A8 & M100-S22, 2012). Panels were prepared at IHMA using cation-adjusted Mueller-Hinton broth. Colonies were taken directly from a second-pass culture plate and prepared to a suspension equivalent of the 0.5 McFarland standard using normal saline.
# Testing was carried out as described in the General Procedures to determine minimum inhibitory concentration (MIC) end points for compound (I), amikacin, colistin, gentamicin, meropenem and tobramycin, for 77 A. baumannii isolates. Under the “MIC (μg/ml)” heading, the first column (Range) indicates the MIC end points for the particular number (N) of isolates tested, the second column (50%) provides an estimate of the concentration that inhibits 50% (MIC50) of bacterial isolates tested, and the third column (90%) provides an estimate of the concentration that inhibits 90% of the bacterial isolates tested.
# [3] = tested on: A. baumannii CIP 5377, CIP 7034, AYE, SAN, RCH; test: Antimicrobial susceptibility testing (MIC, broth microdilution, EUCAST; Example 5)
# Description: A. baumannii CIP 5377 (ATCC® 17978): low cephalosporinase producing strain, susceptible to meropenem and amikacin, isolated in an infected patient
# A. baumannii CIP 7034: low cephalosporinase producing strain, susceptible to meropenem and amikacin A. baumannii AYE ATCC® BAA1710™: extended spectrum beta-lactamase producing strain susceptible to meropenem and resistant to amikacin
# A. baumannii SAN-94040 (SAN): cephalosporinase-overproducing strain, susceptible to meropenem and intermediate to amikacin and resistant to fluoroquinolones, isolated from blood cultures of an intensive care patient with nosocomial pneumonia from North Africa (Algeria).
# A. baumannii RCH-69: cephalosporinase producing strain; low susceptibility to imipenem and resistant to amikacin.
# A. baumannii isolates [4] = test: Time kill study (Example 4); conditions: for Time to kill 99.9%: alone
# Procedure: A total of 12 isolates were tested (three per sub-group either susceptible, meropenem-resistant, amikacin-resistant or colistin-resistant). Two combinations were tested per isolate. Time-kill kinetics were performed by testing compound (I) and an additional antibacterial agent (amikacin, colistin and meropenem) individually at 1× and 4× the corresponding MIC of each antibacterial agent. […] Samples were taken at 0, 2, 4, 8 and 24 hours in order to determine colony forming units (CFU/mL).
# Time-kill studies were carried out as described in General Procedures using combinations of compound (I) with amikacin, meropenem and colistin, respectively.
# [5] = A. baumannii 441142, colistin-resistant
# [6] = A. baumannii 441160, colistin-resistant
# [7] = A. baumannii 463996, colistin-resistant
# [8] = A. baumannii 466936, colistin-resistant
# [9] = A. baumannii 517303, colistin-resistant
# [10] = A. baumannii 618649, meropenem-resistant
# [11] = A. baumannii 625917, meropenem-resistant
# [12] = A. baumannii 628760, susceptible
# [13] = A. baumannii 637723, amikacin-resistant
# [14] = A. baumannii 638115, amikacin-resistant
# [15] = A. baumannii 650216, meropenem-resistant
# [16] = A. baumannii 655932, amikacin-resistant
# [17] = A. baumannii 661954, amikacin-resistant
# [18] = A. baumannii 667848, meropenem-resistant
# [19] = A. baumannii 668116, susceptible
# [20] = A. baumannii 668239, amikacin-resistant
# [21] = A. baumannii 670348, susceptible
# [22] = A. baumannii 671050, meropenem-resistant
# [23] = A. baumannii 672190, susceptible
# [24] = A. baumannii 674340, susceptible
# [25] = Amikacin-resistant isolates, N=20
# [26] = Colistin-resistant isolates, N=15
# [27] = Meropenem-resistant isolates, N=20
substance,measurement,setting,value
gentamicin,MIC,A. baumannii isolates [1]; [5],>1024 µg/mL
same,MIC,A. baumannii isolates [1]; [6],>1024 µg/mL
same,MIC,A. baumannii isolates [1]; [7],2 µg/mL
same,MIC,A. baumannii isolates [1]; [8],4 µg/mL
same,MIC,A. baumannii isolates [1]; [9],512 µg/mL
same,MIC,A. baumannii isolates [1]; [10],0.5 µg/mL
same,MIC,A. baumannii isolates [1]; [11],1 µg/mL
same,MIC,A. baumannii isolates [1]; [12],1 µg/mL
same,MIC,A. baumannii isolates [1]; [13],128 µg/mL
same,MIC,A. baumannii isolates [1]; [14],4 µg/mL
same,MIC,A. baumannii isolates [1]; [15],64 µg/mL
same,MIC,A. baumannii isolates [1]; [16],128 µg/mL
same,MIC,A. baumannii isolates [1]; [17],16 µg/mL
same,MIC,A. baumannii isolates [1]; [18],256 µg/mL
same,MIC,A. baumannii isolates [1]; [19],0.5 µg/mL
same,MIC,A. baumannii isolates [1]; [20],1024 µg/mL
same,MIC,A. baumannii isolates [1]; [21],1 µg/mL
same,MIC,A. baumannii isolates [1]; [22],8 µg/mL
same,MIC,A. baumannii isolates [1]; [23],1 µg/mL
same,MIC,A. baumannii isolates [1]; [24],1 µg/mL
same,MIC 50%,"A. baumannii isolates [2]; All isolates, N=77",32 µg/mL
same,MIC 90%,"A. baumannii isolates [2]; All isolates, N=77",>32 µg/mL
same,MIC 50%,A. baumannii isolates [2]; [25],>32 µg/mL
same,MIC 90%,A. baumannii isolates [2]; [25],>32 µg/mL
same,MIC 50%,A. baumannii isolates [2]; [26],32 µg/mL
same,MIC 90%,A. baumannii isolates [2]; [26],>32 µg/mL
same,MIC 50%,A. baumannii isolates [2]; [27],>32 µg/mL
same,MIC 90%,A. baumannii isolates [2]; [27],>32 µg/mL
same,MIC 50%,"A. baumannii isolates [2]; Susceptible isolates, N=22",1 µg/mL
same,MIC 90%,"A. baumannii isolates [2]; Susceptible isolates, N=22",2 µg/mL
same,MIC Range,"A. baumannii isolates [2]; Susceptible isolates, N=22",0.06 to 2 µg/mL
colistin,MIC,[3]; A. baumannii AYE,1 µg/mL
same,MIC,[3]; A. baumannii CIP 5377,0.5 µg/mL
same,MIC,[3]; A. baumannii CIP 7034,0.5 µg/mL
same,MIC,[3]; A. baumannii RCH,0.5 µg/mL
same,MIC,[3]; A. baumannii SAN,1 µg/mL
same,Time to kill 99.9%,"A. baumannii isolates [4]; AMK-R-1, 1xMIC",1.4 h
same,Time to kill 99.9%,"A. baumannii isolates [4]; AMK-R-1, 4xMIC",1.3 h
same,Time to kill 99.9%,"A. baumannii isolates [4]; AMK-R-2, 1xMIC",2.3 h
same,Time to kill 99.9%,"A. baumannii isolates [4]; AMK-R-2, 4xMIC",1.8 h
same,Time to kill 99.9%,"A. baumannii isolates [4]; AMK-R-3, 1xMIC",>24 h^
same,Time to kill 99.9%,"A. baumannii isolates [4]; AMK-R-3, 4xMIC",2.9 h
same,Time to kill 99.9%,"A. baumannii isolates [4]; COL-R-1, 1xMIC",2.8 h
same,Time to kill 99.9%,"A. baumannii isolates [4]; COL-R-1, 4xMIC",2.3 h
same,Time to kill 99.9%,"A. baumannii isolates [4]; COL-R-2, 1xMIC",>24 h^
same,Time to kill 99.9%,"A. baumannii isolates [4]; COL-R-2, 4xMIC",>24 h
same,Time to kill 99.9%,"A. baumannii isolates [4]; COL-R-3, 1xMIC",2.7 h
same,Time to kill 99.9%,"A. baumannii isolates [4]; COL-R-3, 4xMIC",2.1 h
same,Time to kill 99.9%,"A. baumannii isolates [4]; MPM-R-1 (second line, Table 8 r14), 1xMIC",1.3 h
same,Time to kill 99.9%,"A. baumannii isolates [4]; MPM-R-1 (second line, Table 8 r14), 4xMIC",1.6 h
same,Time to kill 99.9%,"A. baumannii isolates [4]; MPM-R-1, 1xMIC",5.0 h
same,Time to kill 99.9%,"A. baumannii isolates [4]; MPM-R-1, 4xMIC",8.1 h
same,Time to kill 99.9%,"A. baumannii isolates [4]; MPM-R-3, 1xMIC",2 h
same,Time to kill 99.9%,"A. baumannii isolates [4]; MPM-R-3, 4xMIC",5.1 h
same,Time to kill 99.9%,"A. baumannii isolates [4]; Sus-1, 1xMIC",>24 h^
same,Time to kill 99.9%,"A. baumannii isolates [4]; Sus-1, 4xMIC",>24 h
same,Time to kill 99.9%,"A. baumannii isolates [4]; Sus-2, 4xMIC",6.3 h
same,Time to kill 99.9%,"A. baumannii isolates [4]; Sus-3, 1xMIC",1.6 h
same,Time to kill 99.9%,"A. baumannii isolates [4]; Sus-3, 4xMIC",3.6 h
same,effect in time-kill studies when tested alone,A. baumannii isolates [4]; alone at 1× or 4×MIC,generally bactericidal
same,MIC,A. baumannii isolates [4]; isolate AMK-R-1,0.5 µg/mL
same,MIC,A. baumannii isolates [4]; isolate AMK-R-2,0.5 µg/mL
same,MIC,A. baumannii isolates [4]; isolate AMK-R-3,0.25 µg/mL
same,MIC,A. baumannii isolates [4]; isolate COL-R-1,8 µg/mL
same,MIC,A. baumannii isolates [4]; isolate COL-R-2,4 µg/mL
same,MIC,A. baumannii isolates [4]; isolate COL-R-3,16 µg/mL
same,MIC,A. baumannii isolates [4]; isolate MPM-R-1,0.25 µg/mL
same,MIC,A. baumannii isolates [4]; isolate MPM-R-3,1 µg/mL
same,MIC,A. baumannii isolates [4]; isolate Sus-1,1 µg/mL
same,MIC,A. baumannii isolates [4]; isolate Sus-2,0.5 µg/mL
same,MIC,A. baumannii isolates [4]; isolate Sus-3,0.25 µg/mL
same,MIC,"A. baumannii isolates [4]; isolate printed MPM-R-1 (second such line of Table 8, r14)",1 µg/mL
same,MIC,A. baumannii isolates [1]; [5],8 µg/mL
same,MIC,A. baumannii isolates [1]; [6],4 µg/mL
same,MIC,A. baumannii isolates [1]; [7],4 µg/mL
same,MIC,A. baumannii isolates [1]; [8],8 µg/mL
same,MIC,A. baumannii isolates [1]; [9],>1024 µg/mL
same,MIC,A. baumannii isolates [1]; [10],0.5 µg/mL
same,MIC,A. baumannii isolates [1]; [11],0.5 µg/mL
same,MIC,A. baumannii isolates [1]; [12],0.5 µg/mL
same,MIC,A. baumannii isolates [1]; [13],0.5 µg/mL
same,MIC,A. baumannii isolates [1]; [14],0.5 µg/mL
same,MIC,A. baumannii isolates [1]; [15],0.25 µg/mL
same,MIC,A. baumannii isolates [1]; [16],0.5 µg/mL
same,MIC,A. baumannii isolates [1]; [17],1 µg/mL
same,MIC,A. baumannii isolates [1]; [18],0.5 µg/mL
same,MIC,A. baumannii isolates [1]; [19],1 µg/mL
same,MIC,A. baumannii isolates [1]; [20],0.5 µg/mL
same,MIC,A. baumannii isolates [1]; [21],0.5 µg/mL
same,MIC,A. baumannii isolates [1]; [22],0.5 µg/mL
same,MIC,A. baumannii isolates [1]; [23],0.5 µg/mL
same,MIC,A. baumannii isolates [1]; [24],0.5 µg/mL
same,mode MIC,"A. baumannii isolates [2]; 77 isolates, FIG. 1 and 2",lowest mode MIC
same,MIC 50%,"A. baumannii isolates [2]; All isolates, N=77",0.5 µg/mL
same,MIC 90%,"A. baumannii isolates [2]; All isolates, N=77",8 µg/mL
same,MIC 50%,A. baumannii isolates [2]; [25],0.5 µg/mL
same,MIC 90%,A. baumannii isolates [2]; [25],1 µg/mL
same,MIC Range,A. baumannii isolates [2]; [25],0.25 to 2 µg/mL
same,MIC 50%,A. baumannii isolates [2]; [26],8 µg/mL
same,MIC 90%,A. baumannii isolates [2]; [26],>32 µg/mL
same,MIC 50%,A. baumannii isolates [2]; [27],0.5 µg/mL
same,MIC 90%,A. baumannii isolates [2]; [27],1 µg/mL
same,MIC Range,A. baumannii isolates [2]; [27],0.25 to 1 µg/mL
same,MIC 50%,"A. baumannii isolates [2]; Susceptible isolates, N=22",0.5 µg/mL
same,MIC 90%,"A. baumannii isolates [2]; Susceptible isolates, N=22",0.5 µg/mL
same,MIC Range,"A. baumannii isolates [2]; Susceptible isolates, N=22",0.06 to 1 µg/mL
